Assay results published in patent US12492173B2, “Herbicidal substituted N-tetrazolyl aryl carboxamides” (Bayer Aktiengesellschaft, priority 2019, dated 2025).

Experiments:
Format in all cases: in vivo
[1] = system: Amaranthus retroflexus; test: Pre-emergence herbicidal action, AMARE; set-up: key to Herbicidal action against AMARE: % activity: 100 = plants have died, 0 = like control plants; details: for herbicidal activity AMARE: dosage 320 g/ha, scored visually after 3 weeks vs untreated controls (100% = plants have died); for Herbicidal action against AMARE: comparative experiment, 80 g of a.i./ha
Method in brief: (§1)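 Herbicidal activity is expressed in percent, scored by eye after a 3-week greenhouse period, with 0% matching untreated plants and 100% meaning death. Compounds, as wettable powders or emulsion concentrates, are applied pre-emergence to the covering soil.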

[2] = system: Hordeum murinum; test: Pre-emergence herbicidal action, HORMU; details: dosage 320 g/ha, scored visually after 3 weeks vs untreated controls (100% = plants have died)
From the text: (§2) 1. Pre-Emergence Herbicidal Action Against Harmful Plants Seeds of monocotyledonous and dicotyledonous weed plants and crop plants are laid out in sandy loam soil in wood-fiber pots and covered with soil. The compounds of the invention, formulated in the form of wettable powders (WP) or as emulsion concentrates (EC), are then applied to the surface of the covering soil in the form of an aqueous suspension or emulsion at a water application rate equating to 600 to 800 l/ha, with addition of 0.2% wetting agent. After the treatment, the pots are placed in a greenhouse and kept under good growth conditions for the trial plants. The damage to the test plants is scored visually after a test period of 3 weeks by comparison with untreated controls (herbicidal activity in percent (%): 100% activity=the plants have died, 0% activity=like control plants). […] The tables below illustrate, in an exemplary manner, the […] herbicidal action of the compounds according to the invention, the herbicidal activity being stated in percent. [table] In the experiments that follow, herbicidal action of numerous inventive compounds and the known compounds that are structurally closest from D1 (WO 2012/028579 A1) and D2 (WO 2018/202535 A1) were compared under the above-specified conditions by the pre-emergence and post-emergence method. The example numbers given in the tables relate to the compounds disclosed in the respective documents. In addition to the compounds disclosed in D1 and D2, the following compounds V-1 to V-14 that are encompassed by D1 or D2 but are not compounds specified therein were used in the comparative experiments: • V-1: 2-(methylsulfanyl)-3-(methylsulfinyl)-N-(1-methyl-1H-tetrazol-5-yl)-4-(trifluoromethyl)benzamide • V-2: 2-(methylsulfanyl)-3-(methylsulfonyl)-N-(1-methyl-1H-tetrazol-5-yl)-4-(trifluoromethyl)benzamide • V-3: 2,3-bis(ethylsulfanyl)-N-(1-methyl-1H-tetrazol-5-yl)-4-(trifluoromethyl)benzamide • V-4: 2-chloro-3-(ethylsulfanyl)-N-(1-methyl-1H-tetrazol-5-yl)-4-(trifluoromethyl)benzamide • V-5: 2-chloro-4-iodo-3-(methylsulfanyl)-N-(1-methyl-1H-tetrazol-5-yl)benzamide • V-6: 2-chloro-4-iodo-3-(methylsulfinyl)-N-(1-methyl-1H-tetrazol-5-yl)benzamide • V-7: 2-chloro-4-iodo-3-(methylsulfonyl)-N-(1-methyl-1H-tetrazol-5-yl)benzamide • V-8: 2-bromo-3-(methylsulfanyl)-N-(1-methyl-1H-tetrazol-5-yl)-4-(trifluoromethyl)benzamide • V-9: 2-bromo-3-(methylsulfinyl)-N-(1-methyl-1H-tetrazol-5-yl)-4-(trifluoromethyl)benzamide • V-10: 2-bromo-3-(methylsulfonyl)-N-(1-methyl-1H-tetrazol-5-yl)-4-(trifluoromethyl)benzamide • V-11: 2-bromo-3-(ethylsulfanyl)-N-(1-methyl-1H-tetrazol-5-yl)-4-(trifluoromethyl)benzamide • V-12: 2-bromo-3-(ethylsulfinyl)-N-(1-methyl-1H-tetrazol-5-yl)-4-(trifluoromethyl)benzamide • V-13: 2-bromo-3-(ethylsulfonyl)-N-(1-methyl-1-1H-tetrazol-5-yl)-4-(trifluoromethyl)benzamide • V-14: 2-cyclopropyl-3-(ethylsulfanyl)-N-(1-methyl-1H-tetrazol-5-yl)-4-(trifluoromethyl)benzamide Herbicidal Pre-Emergence Action: […]

[3] = system: Stellaria media; test: Pre-emergence herbicidal action, STEME; set-up: key to Herbicidal action against STEME: % activity: 100 = plants have died, 0 = like control plants; details: for herbicidal activity STEME: dosage 320 g/ha, scored visually after 3 weeks vs untreated controls (100% = plants have died)
Method in brief: as §1

[4] = system: Lolium multiflorum; test: Pre-emergence herbicidal action, LOLMU; details: dosage 320 g/ha, scored visually after 3 weeks vs untreated controls (100% = plants have died)
From the text: as §2

[5] = system: Alopecurus myosuroides; test: Post-emergence herbicidal action, ALOMY; set-up: key: % herbicidal action vs untreated; 100 = plants died, 0 = like control; details: for Herbicidal action against ALOMY: comparative experiment
Method in brief: (§3)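 Greenhouse post-emergence test: weeds sown in sandy loam were sprayed once at one leaf, 2 to 3 weeks from sowing, with aqueous WP or EC preparations carrying 0.2% wetting agent. Effect is scored visually after about 3 weeks.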

[6] = system: Cyperus esculentus; test: Post-emergence herbicidal action, CYPES; set-up: key: % herbicidal action vs untreated; 100 = plants died, 0 = like control
Method in brief: as §3

[7] = post-emergence, 20 g of a.i./ha

| Compound | herbicidal activity AMARE [1] | herbicidal activity STEME [3] | herbicidal activity LOLMU [4] | herbicidal action ALOMY ([5]; post-emergence, dosage 80 g/ha) | herbicidal action ALOMY ([5]; Dosage 80 g/ha) | herbicidal action CYPES ([6]; post-emergence, dosage 80 g/ha) | also measured |
| --- | --- | --- | --- | --- | --- | --- | --- |
| CCCn1nnnc1NC(=O)c1ccc(C(F)F)c(CS(C)(=O)=O)c1SC [Example 3-172] | 100% | 100% |  |  |  |  | herbicidal activity HORMU [2]: 80% |
| CCn1nnnc1NC(=O)c1ccc(C(F)(F)F)c(C[S+]([O-])CC)c1Br (stereo not drawn) [Example 2-384] | 100% | 100% | 100% | 90% |  |  |  |
| CSc1c(C(=O)Nc2nnnn2C)ccc(C(F)F)c1C[S+](C)[O-] (stereo not drawn) [Example 1-171] | 100% | 100% |  |  | 80 |  | herbicidal activity HORMU [2]: 80% |
| CCn1nnnc1NC(=O)c1ccc(C(F)(F)F)c(CS(=O)(=O)CC)c1Br [Example 2-385] | 100% | 100% | 100% | 80% |  | 90% |  |
| Cn1nnnc1NC(=O)c1ccc(C(F)F)c(CS(C)(=O)=O)c1Cl [Example 1-322] | 100% | 100% | 100% | 90% |  |  |  |
| CCn1nnnc1NC(=O)c1ccc(C(F)(F)F)c(CSC)c1Cl [Example 2-296] | 100% | 100% | 100% | 100% |  | 80% |  |
| CCCn1nnnc1NC(=O)c1ccc(C(F)F)c(C[S+](C)[O-])c1SC (stereo not drawn) [Example 3-171] | 100% | 100% |  |  |  |  | herbicidal activity HORMU [2]: 90% |
| CCS(=O)(=O)Cc1c(C(F)(F)F)ccc(C(=O)Nc2nnnn2C)c1Br [Example 1-385] | 100% | 90% | 100% | 90% |  | 80% | Herbicidal action against AMARE [1]: 100; Herbicidal action against ALOMY [5, 7]: 80; Herbicidal action against CYPES ([6]; comparative experiment, post-emergence, 20 g of a.i./ha): 60 |
| CCn1nnnc1NC(=O)c1ccc(C(F)F)c(CS(C)(=O)=O)c1Cl [Example 2-322] | 100% | 100% | 100% | 80% |  |  |  |
| CCCn1nnnc1NC(=O)c1ccc(C(F)(F)F)c(C[S+]([O-])CC)c1Br (stereo not drawn) [Example 3-384] | 100% | 90% | 90% |  | 80 |  |  |
| CCCn1nnnc1NC(=O)c1ccc(C(F)(F)F)c(CS(C)(=O)=O)c1SC [Example 3-163] | 100% | 100% |  |  | 90 |  | herbicidal activity HORMU [2]: 90% |
| Cn1nnnc1NC(=O)c1ccc(C(F)(F)F)c(CS(C)(=O)=O)c1C(F)(F)C(F)(F)F [Example 1-552] | 100% | 100% |  |  |  |  | herbicidal activity HORMU [2]: 80% |
| CCn1nnnc1NC(=O)c1ccc(C(F)F)c(CSC)c1Cl [Example 2-320] | 100% | 100% | 90% |  | 100 |  | herbicidal action CYPES ([6]; Dosage 80 g/ha): 80 |
| CSCc1c(C(F)(F)F)ccc(C(=O)Nc2nnnn2C)c1C [Example 1-83] | 100% | 100% | 100% | 80% |  | 90% |  |
| CCSCc1c(C(F)F)ccc(C(=O)Nc2nnnn2C)c1Cl [Example 1-323] | 100% | 100% | 100% | 90% |  | 80% |  |
| CCn1nnnc1NC(=O)c1ccc(C(F)F)c(CSC)c1SC [Example 2-170] | 100% | 100% |  |  | 80 |  | herbicidal activity HORMU [2]: 80% |
| CCSCc1c(C(F)(F)F)ccc(C(=O)Nc2nnnn2C)c1Cl [Example 1-299] | 100% | 100% | 100% | 90% |  | 80% | Herbicidal action against ALOMY ([5]; post-emergence, 5 g of a.i./ha): 70 |
| CCn1nnnc1NC(=O)c1ccc(C(F)(F)F)c(C[S+](C)[O-])c1Cl (stereo not drawn) [Example 2-297] | 100% | 100% | 90% | 100% |  |  |  |
| CCSCc1c(C(F)(F)F)ccc(C(=O)Nc2nnnn2C)c1Br [Example 1-383] | 100% | 100% | 100% | 100% |  |  | Herbicidal action against AMARE [1]: 100; Herbicidal action against ALOMY [5, 7]: 80 |
| CCSCc1c(C(F)(F)F)ccc(C(=O)Nc2nnnn2CC)c1Cl [Example 2-299] | 100% | 100% | 100% | 90% |  | 90% |  |
| CCn1nnnc1NC(=O)c1ccc(C(F)(F)F)c(CS(C)(=O)=O)c1Cl [Example 2-298] | 100% | 90% | 90% |  | 80 |  |  |
| CCn1nnnc1NC(=O)c1ccc(C(F)(F)F)c(C[S+](C)[O-])c1SC (stereo not drawn) [Example 2-162] | 100% | 100% |  |  | 90 |  | herbicidal activity HORMU [2]: 90% |
| CCS(=O)(=O)Cc1c(C(F)F)ccc(C(=O)Nc2nnnn2C)c1Cl [Example 1-325] | 100% | 100% | 100% |  | 90 |  | herbicidal action CYPES ([6]; Dosage 80 g/ha): 80 |
| CCn1nnnc1NC(=O)c1ccc(C(F)F)c(CS(=O)(=O)CC)c1Cl [Example 2-325] | 100% | 100% | 100% |  | 80 |  |  |
| CC[S+]([O-])Cc1c(C(F)(F)F)ccc(C(=O)Nc2nnnn2C)c1Br (racemic) [Example 1-384] | 100% | 100% | 100% | 90% |  | 90% | Herbicidal action against STEME ([3]; comparative experiment, 80 g of a.i./ha): 100 |
| CCCn1nnnc1NC(=O)c1ccc(C(F)F)c(CSCC)c1Cl [Example 3-323] | 100% | 100% | 100% |  | 80 |  |  |
| CCCn1nnnc1NC(=O)c1ccc(C(F)(F)F)c(CS(C)(=O)=O)c1Cl [Example 3-298] | 100% | 90% | 90% |  |  |  |  |
| CCSCc1c(C(F)F)ccc(C(=O)Nc2nnnn2CC)c1Cl [Example 2-323] | 100% | 100% | 100% | 80% |  | 80% |  |
